Experiments:
Assay in all cases: Kinase selectivity, DiscoverX scanMAX Kinase assay panel (% control)
Format in all cases: binding
[1] = molecular target: T1, kinases of the scanMAX Kinase assay panel (Homo sapiens, UniProt Q8N5S9); details: CAMKK1; 1 uM
T1 construct: purchased DiscoverX Co. (contract measurement) scanMAX Kinase assay panel
Outline: (§1)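 Compounds tested at 1 uM against the scanMAX kinase panel. Signal expressed as % control = (compound − positive control)/(DMSO negative control − positive control) × 100, where positive control = 0% and DMSO = 100%; below 35% counted as activity on that kinase.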

[2] = molecular target: T2, kinases of the scanMAX Kinase assay panel (Homo sapiens, UniProt Q9UIK4); details: DAPK2; 1 uM
T2 construct: purchased DiscoverX Co. (contract measurement) scanMAX Kinase assay panel
Outline: as §1

[3] = molecular target: T3, kinases of the scanMAX Kinase assay panel (Homo sapiens, UniProt Q13555); details: CAMK2G; 1 uM
T3 construct: purchased DiscoverX Co. (contract measurement) scanMAX Kinase assay panel
Outline: as §1

[4] = molecular target: T4, kinases of the scanMAX Kinase assay panel (Homo sapiens, UniProt O00506); details: kinase YSK1; 1 uM in DMSO
T4 construct: purchased DiscoverX Co. (contract measurement) scanMAX Kinase assay panel
Outline: as §1

[5] = molecular target: T5, kinases of the scanMAX Kinase assay panel (Homo sapiens, UniProt P49760); details: CLK2; 1 uM
T5 construct: purchased DiscoverX Co. (contract measurement) scanMAX Kinase assay panel
Outline: as §1

[6] = molecular target: T6, kinases of the scanMAX Kinase assay panel (Homo sapiens, UniProt Q02750); details: MEK1; 1 uM
T6 construct: purchased DiscoverX Co. (contract measurement) scanMAX Kinase assay panel
Outline: as §1

[7] = molecular target: T7, kinases of the scanMAX Kinase assay panel (Homo sapiens, UniProt Q13882); details: BRK; 1 uM
T7 construct: purchased DiscoverX Co. (contract measurement) scanMAX Kinase assay panel
Outline: as §1

[8] = molecular target: T8, kinases of the scanMAX Kinase assay panel (Homo sapiens, UniProt Q9BYT3); details: kinase STK33; 1 uM in DMSO
T8 construct: purchased DiscoverX Co. (contract measurement) scanMAX Kinase assay panel
Outline: as §1

[9] = molecular target: T9, kinases of the scanMAX Kinase assay panel (Homo sapiens, UniProt P24941); details: CDK2; 1 uM
T9 construct: purchased DiscoverX Co. (contract measurement) scanMAX Kinase assay panel
Outline: as §1

[10] = molecular target: T10, kinases of the scanMAX Kinase assay panel (Homo sapiens, UniProt Q8IVH8); details: MAP4K3; 1 uM
T10 construct: purchased DiscoverX Co. (contract measurement) scanMAX Kinase assay panel
T10 sequence (Q8IVH8 1-894): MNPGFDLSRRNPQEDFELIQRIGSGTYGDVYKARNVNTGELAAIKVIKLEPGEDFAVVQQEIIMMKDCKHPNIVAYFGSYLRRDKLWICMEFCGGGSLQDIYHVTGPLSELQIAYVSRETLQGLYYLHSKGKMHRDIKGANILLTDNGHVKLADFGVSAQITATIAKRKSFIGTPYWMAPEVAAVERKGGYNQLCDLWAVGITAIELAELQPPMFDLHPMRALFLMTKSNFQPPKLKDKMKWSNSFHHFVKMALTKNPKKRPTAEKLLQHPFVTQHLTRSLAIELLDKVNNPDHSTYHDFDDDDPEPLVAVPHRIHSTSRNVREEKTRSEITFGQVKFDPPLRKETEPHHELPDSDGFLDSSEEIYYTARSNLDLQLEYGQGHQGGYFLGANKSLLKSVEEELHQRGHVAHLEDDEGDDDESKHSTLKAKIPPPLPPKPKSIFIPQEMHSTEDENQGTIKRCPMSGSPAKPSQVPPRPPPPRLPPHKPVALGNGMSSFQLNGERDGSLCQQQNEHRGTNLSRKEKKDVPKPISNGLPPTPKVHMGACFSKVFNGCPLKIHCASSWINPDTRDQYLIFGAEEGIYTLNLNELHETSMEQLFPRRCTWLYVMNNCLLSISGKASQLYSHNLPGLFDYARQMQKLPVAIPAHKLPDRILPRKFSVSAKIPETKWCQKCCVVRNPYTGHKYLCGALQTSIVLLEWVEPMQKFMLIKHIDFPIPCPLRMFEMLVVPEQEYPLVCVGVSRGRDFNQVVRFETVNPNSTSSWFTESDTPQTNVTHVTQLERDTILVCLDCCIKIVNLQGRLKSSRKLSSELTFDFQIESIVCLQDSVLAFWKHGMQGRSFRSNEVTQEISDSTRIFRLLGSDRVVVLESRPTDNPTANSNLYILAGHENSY
Outline: as §1

[11] = molecular target: T11, kinases of the scanMAX Kinase assay panel (Homo sapiens, UniProt Q16566); details: CAMK4; 1 uM
T11 construct: purchased DiscoverX Co. (contract measurement) scanMAX Kinase assay panel
T11 sequence (Q16566 1-473): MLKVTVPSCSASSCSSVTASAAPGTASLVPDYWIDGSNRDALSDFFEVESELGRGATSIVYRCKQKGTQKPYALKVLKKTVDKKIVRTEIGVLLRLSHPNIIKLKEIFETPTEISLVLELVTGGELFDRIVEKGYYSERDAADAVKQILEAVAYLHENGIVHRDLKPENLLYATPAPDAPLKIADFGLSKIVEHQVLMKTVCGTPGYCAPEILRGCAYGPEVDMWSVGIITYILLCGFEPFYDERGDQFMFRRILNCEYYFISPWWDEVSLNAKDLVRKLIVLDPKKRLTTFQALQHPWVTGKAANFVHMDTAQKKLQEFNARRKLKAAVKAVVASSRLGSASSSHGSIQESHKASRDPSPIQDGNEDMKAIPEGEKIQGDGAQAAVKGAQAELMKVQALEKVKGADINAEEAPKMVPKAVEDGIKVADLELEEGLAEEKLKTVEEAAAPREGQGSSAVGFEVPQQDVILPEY
Outline: as §1

[12] = molecular target: T12, kinases of the scanMAX Kinase assay panel (Homo sapiens, UniProt O43353); details: kinase RIPK2; 1 uM in DMSO
T12 construct: purchased DiscoverX Co. (contract measurement) scanMAX Kinase assay panel
Outline: as §1

T8 sequence (Q9BYT3 whole entry): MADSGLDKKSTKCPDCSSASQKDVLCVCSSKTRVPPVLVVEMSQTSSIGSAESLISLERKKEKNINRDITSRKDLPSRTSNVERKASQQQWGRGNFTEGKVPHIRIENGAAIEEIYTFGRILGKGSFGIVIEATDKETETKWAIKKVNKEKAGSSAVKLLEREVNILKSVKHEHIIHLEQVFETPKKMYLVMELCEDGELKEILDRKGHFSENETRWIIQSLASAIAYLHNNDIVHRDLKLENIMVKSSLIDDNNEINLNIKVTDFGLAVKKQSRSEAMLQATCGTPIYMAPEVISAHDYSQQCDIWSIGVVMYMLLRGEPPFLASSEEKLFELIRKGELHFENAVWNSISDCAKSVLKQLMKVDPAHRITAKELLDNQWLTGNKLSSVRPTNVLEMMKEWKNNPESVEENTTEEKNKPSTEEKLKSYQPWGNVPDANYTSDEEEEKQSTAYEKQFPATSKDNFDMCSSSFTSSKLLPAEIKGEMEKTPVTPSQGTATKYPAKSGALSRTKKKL
T2 sequence (Q9UIK4 whole entry): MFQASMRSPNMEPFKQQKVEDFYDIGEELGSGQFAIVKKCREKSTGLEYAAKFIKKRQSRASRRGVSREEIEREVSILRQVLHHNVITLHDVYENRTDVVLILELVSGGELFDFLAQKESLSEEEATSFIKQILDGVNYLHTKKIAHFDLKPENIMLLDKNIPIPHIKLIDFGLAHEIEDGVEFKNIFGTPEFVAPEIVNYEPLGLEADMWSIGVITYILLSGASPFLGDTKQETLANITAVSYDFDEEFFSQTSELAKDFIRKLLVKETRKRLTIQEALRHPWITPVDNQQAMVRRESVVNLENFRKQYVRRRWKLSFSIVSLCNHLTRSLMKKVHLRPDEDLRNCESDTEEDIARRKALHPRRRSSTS
T1 sequence (Q8N5S9 whole entry): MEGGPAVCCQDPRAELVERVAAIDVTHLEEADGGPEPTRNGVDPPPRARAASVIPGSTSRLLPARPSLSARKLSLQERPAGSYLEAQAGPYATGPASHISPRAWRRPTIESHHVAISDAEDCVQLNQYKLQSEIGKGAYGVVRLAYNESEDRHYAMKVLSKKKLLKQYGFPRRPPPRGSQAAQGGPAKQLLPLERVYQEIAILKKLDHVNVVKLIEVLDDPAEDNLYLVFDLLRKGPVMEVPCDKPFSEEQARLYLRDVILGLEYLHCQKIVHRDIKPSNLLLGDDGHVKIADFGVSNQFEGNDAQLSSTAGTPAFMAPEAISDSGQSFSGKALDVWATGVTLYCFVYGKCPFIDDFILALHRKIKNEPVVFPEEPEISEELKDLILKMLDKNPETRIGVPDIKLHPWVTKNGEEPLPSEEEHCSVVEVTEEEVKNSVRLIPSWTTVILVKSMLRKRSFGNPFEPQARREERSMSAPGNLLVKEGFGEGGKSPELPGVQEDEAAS
T12 sequence (O43353 whole entry): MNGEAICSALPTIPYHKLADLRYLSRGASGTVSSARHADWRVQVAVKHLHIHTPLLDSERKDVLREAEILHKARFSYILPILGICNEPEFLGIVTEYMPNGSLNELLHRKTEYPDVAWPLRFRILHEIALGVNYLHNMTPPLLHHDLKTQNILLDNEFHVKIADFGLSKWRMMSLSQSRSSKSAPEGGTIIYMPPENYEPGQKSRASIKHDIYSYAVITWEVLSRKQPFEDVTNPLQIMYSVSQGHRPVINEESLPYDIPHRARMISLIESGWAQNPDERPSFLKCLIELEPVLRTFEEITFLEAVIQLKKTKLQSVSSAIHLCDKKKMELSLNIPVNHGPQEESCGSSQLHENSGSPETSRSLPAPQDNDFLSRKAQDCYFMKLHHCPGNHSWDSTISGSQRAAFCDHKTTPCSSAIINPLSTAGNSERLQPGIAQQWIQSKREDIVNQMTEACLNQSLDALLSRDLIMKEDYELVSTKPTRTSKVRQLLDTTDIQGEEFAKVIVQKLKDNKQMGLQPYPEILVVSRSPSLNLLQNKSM
T4 sequence (O00506 whole entry): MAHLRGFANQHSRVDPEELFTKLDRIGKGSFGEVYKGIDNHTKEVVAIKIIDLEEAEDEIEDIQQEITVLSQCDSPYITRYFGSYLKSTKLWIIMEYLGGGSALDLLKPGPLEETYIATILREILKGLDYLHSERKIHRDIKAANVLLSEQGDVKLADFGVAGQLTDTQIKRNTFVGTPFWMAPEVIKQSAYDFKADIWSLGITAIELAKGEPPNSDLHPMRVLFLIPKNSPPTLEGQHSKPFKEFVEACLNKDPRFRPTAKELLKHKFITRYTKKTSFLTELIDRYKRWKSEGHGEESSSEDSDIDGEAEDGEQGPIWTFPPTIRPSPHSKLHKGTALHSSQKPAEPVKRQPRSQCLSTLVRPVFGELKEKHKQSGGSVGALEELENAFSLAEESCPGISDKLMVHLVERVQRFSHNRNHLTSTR
T3 sequence (Q13555 whole entry): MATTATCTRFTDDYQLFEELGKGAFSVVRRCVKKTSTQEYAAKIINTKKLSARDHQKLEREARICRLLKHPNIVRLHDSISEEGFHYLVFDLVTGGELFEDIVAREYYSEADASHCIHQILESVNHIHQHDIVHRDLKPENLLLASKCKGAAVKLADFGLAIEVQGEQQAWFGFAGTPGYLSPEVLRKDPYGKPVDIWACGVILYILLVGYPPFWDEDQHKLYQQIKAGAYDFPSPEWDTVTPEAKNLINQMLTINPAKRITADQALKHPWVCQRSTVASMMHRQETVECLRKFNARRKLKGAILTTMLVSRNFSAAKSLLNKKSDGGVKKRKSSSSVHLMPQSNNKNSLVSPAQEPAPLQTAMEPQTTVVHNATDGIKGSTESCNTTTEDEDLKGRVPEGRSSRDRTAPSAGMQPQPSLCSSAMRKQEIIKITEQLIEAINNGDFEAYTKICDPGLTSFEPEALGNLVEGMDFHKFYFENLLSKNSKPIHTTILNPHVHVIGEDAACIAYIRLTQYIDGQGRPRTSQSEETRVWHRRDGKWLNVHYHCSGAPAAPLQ
T5 sequence (P49760 whole entry): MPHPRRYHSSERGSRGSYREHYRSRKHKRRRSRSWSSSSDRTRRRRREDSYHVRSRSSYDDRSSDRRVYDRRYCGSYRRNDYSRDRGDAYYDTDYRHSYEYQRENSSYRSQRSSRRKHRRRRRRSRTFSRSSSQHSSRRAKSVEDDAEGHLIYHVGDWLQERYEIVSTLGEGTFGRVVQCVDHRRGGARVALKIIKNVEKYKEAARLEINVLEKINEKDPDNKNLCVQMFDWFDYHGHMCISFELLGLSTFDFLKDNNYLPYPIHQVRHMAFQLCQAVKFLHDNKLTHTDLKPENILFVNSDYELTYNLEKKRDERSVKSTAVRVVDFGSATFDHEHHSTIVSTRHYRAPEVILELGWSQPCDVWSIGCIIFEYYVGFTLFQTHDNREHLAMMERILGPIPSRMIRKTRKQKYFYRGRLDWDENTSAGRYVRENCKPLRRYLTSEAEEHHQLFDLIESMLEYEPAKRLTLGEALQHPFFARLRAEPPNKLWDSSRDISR
T7 sequence (Q13882 whole entry): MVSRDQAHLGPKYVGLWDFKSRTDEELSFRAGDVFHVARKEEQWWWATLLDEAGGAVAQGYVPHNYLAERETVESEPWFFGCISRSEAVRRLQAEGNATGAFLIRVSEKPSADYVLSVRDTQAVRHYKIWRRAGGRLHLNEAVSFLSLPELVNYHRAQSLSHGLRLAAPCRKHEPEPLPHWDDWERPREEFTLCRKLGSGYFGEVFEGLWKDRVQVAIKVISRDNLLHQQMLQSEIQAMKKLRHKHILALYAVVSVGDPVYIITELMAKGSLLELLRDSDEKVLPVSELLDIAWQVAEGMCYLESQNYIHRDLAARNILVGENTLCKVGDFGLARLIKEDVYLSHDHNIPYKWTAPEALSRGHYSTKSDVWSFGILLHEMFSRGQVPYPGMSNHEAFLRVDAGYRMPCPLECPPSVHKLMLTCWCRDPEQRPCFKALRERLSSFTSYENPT
T6 sequence (Q02750 whole entry): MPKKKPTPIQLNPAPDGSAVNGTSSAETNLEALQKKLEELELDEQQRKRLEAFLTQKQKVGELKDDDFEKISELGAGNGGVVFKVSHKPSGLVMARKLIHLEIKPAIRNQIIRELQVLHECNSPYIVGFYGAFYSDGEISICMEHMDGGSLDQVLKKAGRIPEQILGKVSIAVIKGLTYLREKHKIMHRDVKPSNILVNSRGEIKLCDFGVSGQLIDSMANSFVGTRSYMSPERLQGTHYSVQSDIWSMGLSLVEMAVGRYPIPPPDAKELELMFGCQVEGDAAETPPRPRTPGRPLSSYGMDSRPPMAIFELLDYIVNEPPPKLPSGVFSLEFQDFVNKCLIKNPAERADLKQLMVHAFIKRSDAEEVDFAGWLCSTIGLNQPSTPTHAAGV

## CNc1nc(Nc2ccc(C(=O)N3CCOCC3)cc2OC)nc2[nH]cc(C#N)c12 [Example 1, 2-((2-methoxy-4-(morpholine-4-carbonyl)phenyl)amino)-4-(methylamino)-7H-pyrrolo[2,3-d]pyrimidine-5-carbonitrile]
[1]
  remaining binding at 1 µM: 81%
[2]
  remaining binding at 1 µM: 11%
[3]
  remaining binding at 1 µM: 88%
[4]
  remaining binding at 1 µM: 97%
[5]
  remaining binding at 1 µM: 5.9%
[6]
  remaining binding at 1 µM: 89%
[7]
  remaining binding at 1 µM: 93%
[8]
  remaining binding at 1 µM: 18%
[9]
  remaining binding at 1 µM: 94%
[10]
  remaining binding at 1 µM: 97%
[11]
  remaining binding at 1 µM: 99%
[12]
  remaining binding at 1 µM: 100%

## CC1(Nc2nc(Nc3cnn([C@H]4CCN(C5COC5)C[C@@H]4F)c3Cl)nc3[nH]cc(C#N)c23)CC1 [Example 52, 2-((5-chloro-1-((3S,4S)-3-fluoro-1-(oxetane-3-yl)piperidine-4-yl)-1H-pyrazole-4-yl)amino)((1-methylcyclopropyl)amino)-7H-pyrrolo[2,3-d]pyrimidine-5-carbonitrile]
[1]
  remaining binding at 1 µM: 21%
[2]
  remaining binding at 1 µM: 12%
[3]
  remaining binding at 1 µM: 53%
[4]
  remaining binding at 1 µM: 28%
[5]
  remaining binding at 1 µM: 2.6%
[6]
  remaining binding at 1 µM: 0.1%
[7]
  remaining binding at 1 µM: 24%
[8]
  remaining binding at 1 µM: 4%
[9]
  remaining binding at 1 µM: 96%
[10]
  remaining binding at 1 µM: 3.3%
[11]
  remaining binding at 1 µM: 55%
[12]
  remaining binding at 1 µM: 61%

## CCNc1nc(Nc2ccc(C(=O)N3CCC(N4CCOCC4)CC3)cc2OC)nc2[nH]cc(C(F)(F)F)c12 [Example 104, (4-((4-(ethylamino)-5-(trifluoromethyl)-7H-pyrrolo[2,3-d]pyrimidine-2-yl)amino)-3-methoxyphenyl)(4-morpholinopiperidine-1-yl)methanone]
[1]
  remaining binding at 1 µM: 14%
[2]
  remaining binding at 1 µM: 35%
[3]
  remaining binding at 1 µM: 80%
[4]
  remaining binding at 1 µM: 81%
[5]
  remaining binding at 1 µM: 0.9%
[6]
  remaining binding at 1 µM: 86%
[7]
  remaining binding at 1 µM: 64%
[8]
  remaining binding at 1 µM: 13%
[9]
  remaining binding at 1 µM: 98%
[10]
  remaining binding at 1 µM: 100%
[11]
  remaining binding at 1 µM: 27%
[12]
  remaining binding at 1 µM: 100%
